# US20240116985A1, “STAPLED PEPTIDES AND METHODS THEREOF” (priority 2020, published 2024)
# Test: CHI Log D procedure
# Format: physicochemical
# Conditions: pH 7.4
row,SMILES,CHI Log D
1,"CCCC[C@@H]1NC(=O)[C@H](CC(=O)O)NC(=O)[C@](C)(NC(=O)[C@H](C)NC(=O)[C@H](CC(=O)O)NC(=O)[C@H](Cc2ccccc2)NC(C)=O)CCCCCCC=CCOC(=O)N2CC[C@@](C(=O)N[C@@H](Cc3ccccc3)C(=O)N[C@@H](Cc3c[nH]c4ccccc34)C(=O)N[C@@H](CCC(N)=O)C(N)=O)(C2)NC(=O)[C@H](C(C)C)NC(=O)[C@H](Cc2ccccc2)NC(=O)[C@H](C)NC(=O)[C@H](C)NC1=O [I-14, Ac-Phe-Asp-Ala-R8-Asp-nLeu-Ala-Ala-Phe-Val-PyrS-Phe-Trp-Gln-NH2]",2.013
2,"CC(=O)N[C@@H](Cc1ccccc1)C(=O)N[C@@H](CC(=O)O)C(=O)N[C@@H](C)C(=O)N[C@]1(C)CCCCCCC=CCOC(=O)N2CC[C@@](C(=O)N[C@@H](Cc3ccccc3)C(=O)N[C@@H](Cc3c[nH]c4ccccc34)C(=O)N[C@@H](CCC(N)=O)C(N)=O)(C2)NC(=O)[C@H](C(C)C)NC(=O)[C@H](Cc2ccccc2)NC(=O)[C@H](CCCC(=O)O)NC(=O)[C@H](C)NC(=O)[C@H](CC(=O)O)NC(=O)[C@H](CC(=O)O)NC1=O [I-23, Ac-Phe-Asp-Ala-R8-Asp-Asp-Ala-Aad-Phe-Val-PyrS-Phe-Trp-Gln-NH2]",0.942
3,"CC(=O)N[C@@H](Cc1ccccc1)C(=O)N[C@@H](CC(=O)O)C(=O)N[C@@H](C)C(=O)N[C@]1(C)CCCCCCC=CCOC(=O)N2CC[C@@](C(=O)N[C@@H](Cc3ccccc3)C(=O)N[C@@H](Cc3c[nH]c4ccccc34)C(=O)N[C@@H](CCC(N)=O)C(N)=O)(C2)NC(=O)[C@H](C(C)C)NC(=O)[C@H](Cc2ccccc2)NC(=O)[C@H](CCCC(=O)O)NC(=O)[C@H](C)NC(=O)[C@H](CC(=O)O)NC(=O)[C@H](CC(=O)O)NC1=O [I-24, Ac-Phe-Asp-Ala-R8-Asp-Asp-Ala-Aad-Phe-Val-PyrS-Phe-Trp-Gln-NH2]",0.977
4,"CC(=O)N[C@@H](Cc1ccccc1)C(=O)N[C@@H](CC(=O)O)C(=O)N[C@@H](C)C(=O)N[C@]1(C)CCCN(C)C(=O)OCC=CCCCC[C@@](C)(C(=O)N[C@@H](Cc2ccccc2)C(=O)N[C@@H](Cc2c[nH]c3ccccc23)C(=O)N[C@@H](CCC(N)=O)C(N)=O)NC(=O)[C@H](C(C)C)NC(=O)[C@H](Cc2ccccc2)NC(=O)[C@H](C)NC(=O)[C@H](C)NC(=O)[C@H](CC(=O)O)NC(=O)[C@H](CC(=O)O)NC1=O [I-28, Ac-Phe-Asp-Ala-ReN-Asp-Asp-Ala-Ala-Phe-Val-S6-Phe-Trp-Gln-NH2]",1.219
5,"CC(=O)N[C@@H](Cc1ccccc1)C(=O)N[C@@H](CC(=O)O)C(=O)N[C@@H](C)C(=O)NC12CN(C1)C(=O)OCC=CCCCCC[C@@](C)(C(=O)N[C@@H](Cc1ccccc1)C(=O)N[C@@H](Cc1c[nH]c3ccccc13)C(=O)N[C@@H](CCC(N)=O)C(N)=O)NC(=O)[C@H](C(C)C)NC(=O)[C@H](Cc1ccccc1)NC(=O)[C@H](C)NC(=O)[C@H](C)NC(=O)[C@H](CC(=O)O)NC(=O)[C@H](CC(=O)O)NC2=O [I-32, Ac-Phe-Asp-Ala-Az-Asp-Asp-Ala-Ala-Phe-Val-S7-Phe-Trp-Gln-NH2]",1.243
6,"CC(=O)N[C@@H](Cc1ccccc1)C(=O)N[C@@H](CC(=O)O)C(=O)N[C@@H](C)C(=O)NC12CN(C1)C(=O)OCC=CCCCCC[C@@](C)(C(=O)N[C@@H](Cc1ccccc1)C(=O)N[C@@H](Cc1c[nH]c3ccccc13)C(=O)N[C@@H](CCC(N)=O)C(N)=O)NC(=O)[C@H](C(C)C)NC(=O)[C@H](Cc1ccccc1)NC(=O)[C@H](C)NC(=O)[C@H](C)NC(=O)[C@H](CC(=O)O)NC(=O)[C@H](CC(=O)O)NC2=O [I-33, Ac-Phe-Asp-Ala-Az-Asp-Asp-Ala-Ala-Phe-Val-S7-Phe-Trp-Gln-NH2]",1.228
7,"CC(=O)N[C@@H](Cc1ccccc1)C(=O)N[C@@H](CC(=O)O)C(=O)N[C@@H](C)C(=O)N[C@]1(C)CCN(C)C(=O)OCC=CCC[C@@](C)(C(=O)N[C@@H](Cc2ccccc2)C(=O)N[C@@H](Cc2c[nH]c3ccccc23)C(=O)N[C@@H](CCC(N)=O)C(N)=O)NC(=O)[C@H](C(C)C)NC(=O)[C@H](Cc2ccccc2)NC(=O)[C@H](C)NC(=O)[C@H](C)NC(=O)[C@H](CC(=O)O)NC(=O)[C@H](CC(=O)O)NC1=O [I-42, Ac-Phe-Asp-Ala-RdN-Asp-Asp-Ala-Ala-Phe-Val-S4-Phe-Trp-Gln-NH2]",1.09
8,"CC(=O)N[C@@H](Cc1ccccc1)C(=O)N[C@@H](CC(=O)O)C(=O)N[C@@H](C)C(=O)N[C@]1(C)CCCCCCC=CCOC(=O)N2CC[C@@](C(=O)N[C@@H](Cc3ccccc3)C(=O)N[C@@H](Cc3c[nH]c4ccccc34)C(=O)N[C@@H](CCC(N)=O)C(N)=O)(C2)NC(=O)[C@H](C(C)C)NC(=O)[C@H](Cc2ccccc2)NC(=O)[C@H](C)NC(=O)[C@H](C)NC(=O)[C@H](CCC(N)=O)NC(=O)[C@H](CC(=O)O)NC1=O [I-59, Ac-Phe-Asp-Ala-R8-Asp-Gln-Ala-Ala-Phe-Val-PyrS-Phe-Trp-Gln-NH2]",1.531
9,"CCCC[C@@H]1NC(=O)[C@H](CC(=O)O)NC(=O)[C@](C)(NC(=O)[C@@H](NC(=O)[C@H](CC(=O)O)NC(=O)[C@H](C)NC(C)=O)[C@@H](C)CC)CCN(C)C(=O)OCC=CCCCCC[C@@](C)(C(=O)N[C@@H](Cc2ccccc2)C(=O)N[C@@H](Cc2c[nH]c3ccccc23)C(=O)N[C@@H](Cc2c[nH]cn2)C(N)=O)NC(=O)[C@H](CCC(N)=O)NC(=O)[C@H](Cc2ccccc2)NC(=O)[C@H](C)NC(=O)[C@H](C)NC1=O [I-68, Ac-Ala-Asp-Ile-RdN-Asp-nLeu-Ala-Ala-Phe-Gln-S7-Phe-Trp-His-NH2]",1.553

# Same assay, conditions: pH 7.4, CHI Log D
row,SMILES,chromatographic logD
1,"CC(=O)N[C@@H](Cc1ccccc1)C(=O)N[C@@H](CC(=O)O)C(=O)N[C@@H](C)C(=O)N[C@]1(C)CCCCC=CCOC(=O)N(C)CCC[C@@](C)(C(=O)N[C@@H](Cc2ccccc2)C(=O)N[C@@H](Cc2c[nH]c3ccccc23)C(=O)N[C@@H](CCC(N)=O)C(N)=O)NC(=O)[C@H](C(C)C)NC(=O)[C@H](Cc2ccccc2)NC(=O)[C@H](C)NC(=O)[C@H](C)NC(=O)[C@H](CC(=O)O)NC(=O)[C@H](CC(=O)O)NC1=O [I-26, Ac-Phe-Asp-Ala-R6-Asp-Asp-Ala-Ala-Phe-Val-SeN-Phe-Trp-Gln-NH2]",1.25
2,"CC(=O)N[C@@H](Cc1ccccc1)C(=O)N[C@@H](CC(=O)O)C(=O)N[C@@H](C)C(=O)N[C@]1(C)CCCN(C)C(=O)OCC=CCCC[C@@](C)(C(=O)N[C@@H](Cc2ccccc2)C(=O)N[C@@H](Cc2c[nH]c3ccccc23)C(=O)N[C@@H](CCC(N)=O)C(N)=O)NC(=O)[C@H](C(C)C)NC(=O)[C@H](Cc2ccccc2)NC(=O)[C@H](C)NC(=O)[C@H](C)NC(=O)[C@H](CC(=O)O)NC(=O)[C@H](CC(=O)O)NC1=O [I-27, Ac-Phe-Asp-Ala-ReN-Asp-Asp-Ala-Ala-Phe-Val-S5-Phe-Trp-Gln-NH2]",1.15
3,"CC(=O)N[C@@H](Cc1ccccc1)C(=O)N[C@@H](CC(=O)O)C(=O)N[C@@H](C)C(=O)N[C@]1(C)CCCCCCC=CCOC(=O)N(C)C[C@@](C)(C(=O)N[C@@H](Cc2ccccc2)C(=O)N[C@@H](Cc2c[nH]c3ccccc23)C(=O)N[C@@H](CCC(N)=O)C(N)=O)NC(=O)[C@H](C(C)C)NC(=O)[C@H](Cc2ccccc2)NC(=O)[C@H](C)NC(=O)[C@H](C)NC(=O)[C@H](CC(=O)O)NC(=O)[C@H](CC(=O)O)NC1=O [I-34, Ac-Phe-Asp-Ala-R8-Asp-Asp-Ala-Ala-Phe-Val-SgN-Phe-Trp-Gln-NH2]",1.32
4,"CC(=O)N[C@@H](Cc1ccccc1)C(=O)N[C@@H](CC(=O)O)C(=O)N[C@@H](C)C(=O)N[C@]1(C)CCC=CCOC(=O)N(C)CCC[C@@](C)(C(=O)N[C@@H](Cc2ccccc2)C(=O)N[C@@H](Cc2c[nH]c3ccccc23)C(=O)N[C@@H](CCC(N)=O)C(N)=O)NC(=O)[C@H](C(C)C)NC(=O)[C@H](Cc2ccccc2)NC(=O)[C@H](C)NC(=O)[C@H](C)NC(=O)[C@H](CC(=O)O)NC(=O)[C@H](CC(=O)O)NC1=O [I-36, Ac-Phe-Asp-Ala-R4-Asp-Asp-Ala-Ala-Phe-Val-SeN-Phe-Trp-Gln-NH2]",1.13
5,"CC(=O)N[C@@H](Cc1ccccc1)C(=O)N[C@@H](CC(=O)O)C(=O)N[C@@H](C)C(=O)N[C@]1(C)CCCC=CCOC(=O)N(C)CC[C@@](C)(C(=O)N[C@@H](Cc2ccccc2)C(=O)N[C@@H](Cc2c[nH]c3ccccc23)C(=O)N[C@@H](CCC(N)=O)C(N)=O)NC(=O)[C@H](C(C)C)NC(=O)[C@H](Cc2ccccc2)NC(=O)[C@H](C)NC(=O)[C@H](C)NC(=O)[C@H](CC(=O)O)NC(=O)[C@H](CC(=O)O)NC1=O [I-37, Ac-Phe-Asp-Ala-R5-Asp-Asp-Ala-Ala-Phe-Val-SdN-Phe-Trp-Gln-NH2]",1.16
6,"CC(=O)N[C@@H](Cc1ccccc1)C(=O)N[C@@H](CC(=O)O)C(=O)N[C@@H](C)C(=O)N[C@]1(C)CCCCCC=CCOC(=O)N2CC(C(=O)N[C@@H](Cc3ccccc3)C(=O)N[C@@H](Cc3c[nH]c4ccccc34)C(=O)N[C@@H](CCC(N)=O)C(N)=O)(C2)NC(=O)[C@H](C(C)C)NC(=O)[C@H](Cc2ccccc2)NC(=O)[C@H](C)NC(=O)[C@H](C)NC(=O)[C@H](CC(=O)O)NC(=O)[C@H](CC(=O)O)NC1=O [I-38, Ac-Phe-Asp-Ala-R7-Asp-Asp-Ala-Ala-Phe-Val-Az-Phe-Trp-Gln-NH2]",1.21
7,"CC(=O)N[C@@H](Cc1ccccc1)C(=O)N[C@@H](CC(=O)O)C(=O)N[C@]1(C)CCCCCCC=CCOC(=O)N2CC[C@@](C(=O)N[C@@H](C)C(=O)N[C@@H](Cc3ccccc3)C(=O)N[C@@H](Cc3c[nH]c4ccccc34)C(=O)N[C@@H](CCC(N)=O)C(N)=O)(C2)NC(=O)[C@H](Cc2ccccc2)NC(=O)[C@H](C)NC(=O)[C@H](C)NC(=O)[C@H](CC(=O)O)NC(=O)[C@H](CC(=O)O)NC(=O)[C@H](C)NC1=O [I-51, Ac-Phe-Asp-R8-Ala-Asp-Asp-Ala-Ala-Phe-PyrS-Ala-Phe-Trp-Gln-NH2]",1.25
8,"CCCC[C@@H]1NC(=O)[C@H](C)NC(=O)[C@H](C)NC(=O)[C@H](CC(=O)O)NC(=O)[C@H](CC(=O)O)NC(=O)[C@](C)(NC(=O)[C@H](C)NC(=O)[C@H](CC(=O)O)NC(=O)[C@H](Cc2ccccc2)NC(C)=O)CCCCCCC=CCOC(=O)N2CC[C@@](C(=O)N[C@@H](Cc3ccccc3)C(=O)N[C@@H](Cc3c[nH]c4ccccc34)C(=O)N[C@@H](CCC(N)=O)C(N)=O)(C2)NC(=O)[C@H](C(C)C)NC1=O [I-76, Ac-Phe-Asp-Ala-R8-Asp-Asp-Ala-Ala-nLeu-Val-PyrS-Phe-Trp-Gln-NH2]",1.2
